Results taken from PubChem BioAssay (NCI).
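Exposure lasted 48 hours, with cells grown in 96-well plates and compounds tested at five concentrations. TGI is the concentration that stops growth completely.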

Legend:
Assay in all cases: inhibition of tumour cell growth, NCI panel, 48 h
[1] = test system: HS 578T breast
[2] = test system: SK-OV-3 ovarian
[3] = test system: SNB-75 CNS
[4] = test system: COLO 205 colon
[5] = test system: UACC-257 melanoma
[6] = test system: NCI-H23 lung
[7] = test system: SK-MEL-28 melanoma
[8] = test system: LOX IMVI melanoma
[9] = test system: T-47D breast
[10] = test system: OVCAR-3 ovarian
[11] = test system: PC-3 prostate
[12] = test system: CCRF-CEM leukemia
[13] = test system: MALME-3M melanoma
[14] = test system: MDA-MB-231 breast
[15] = test system: M14 melanoma
[16] = test system: HCT-116 colon
[17] = test system: IGROV1 ovarian
[18] = test system: HCC-2998 colon
[19] = test system: BT-549 breast
[20] = test system: HCT-15 colon
[21] = test system: OVCAR-5 ovarian
[22] = test system: NCI/ADR-RES ovarian
[23] = test system: A498 renal
[24] = test system: U251 CNS
[25] = test system: SNB-19 CNS
[26] = test system: HOP-92 NSCLC
[27] = test system: SK-MEL-2 melanoma
[28] = test system: MDA-MB-435
[29] = test system: UACC-62 melanoma
[30] = test system: A549 NSCLC
[31] = test system: 786-0 renal
[32] = test system: UO-31 renal
[33] = test system: KM12 colon
[34] = test system: HOP-62 NSCLC
[35] = test system: OVCAR-4 ovarian
[36] = test system: NCI-H226 lung
[37] = test system: RPMI-8226 leukemia
[38] = test system: ACHN renal
[39] = test system: OVCAR-8 ovarian
[40] = test system: SF-295 CNS
[41] = test system: SF-268 CNS
[42] = test system: SK-MEL-5 melanoma
[43] = test system: HT29 colon
[44] = test system: DU-145 prostate
[45] = test system: CAKI-1 renal
[46] = test system: RXF 393 renal
[47] = test system: NCI-H460 lung
[48] = test system: TK-10 renal
[49] = test system: SN12C renal

Measured: TGI

CCOC(=O)c1sc2nc(SC)nc3c2c1NCN3C1CC1
> 100 µM: [1] | [2] | [3] | [4] | [5] | [6] | [7] | [8] | [9] | [10] | [11] | [12] | [13] | [14] | [15] | [16] | [17] | [18] | [19] | [20] | [21] | [22] | [23] | [24] | [25] | [26] | [27] | [28] | [29] | [30] | [31] | [32] | [33] | [34] | [35] | [36] | [37] | [38] | [39] | [40] | [41] | [42] | [43] | [44] | [45] | [46] | [47] | [48] | [49]
